The target in this assay is T1, TIR domain of TIR-1 (Caenorhabditis elegans, UniProt Q86DA5).
T1 sequence (Q86DA5 707-930): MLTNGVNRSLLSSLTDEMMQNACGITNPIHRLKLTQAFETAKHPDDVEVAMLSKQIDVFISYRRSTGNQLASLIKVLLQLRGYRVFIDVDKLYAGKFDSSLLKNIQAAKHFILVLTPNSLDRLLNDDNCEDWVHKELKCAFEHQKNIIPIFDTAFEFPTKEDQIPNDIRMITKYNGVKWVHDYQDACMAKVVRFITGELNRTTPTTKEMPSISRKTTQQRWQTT
Nature of the assay: direct fluorescent base exchange assay. The class given is biochemical. Conditions: […] °C.

This passage reports Km results from publication PMC10795796 (Biochemistry, 2023).

Structures are written as SMILES.

By Km is commonly meant the concentration of substrate that gives half-maximal velocity. Turning to `CCOc1ccc(/C=C/c2ccncc2)cc1` [PC6], the Km ([…] NAD+ (saturating), […] PEG […] Tris pH […] NaCl) came to 165 µM. In the case of `NC(=O)c1ccc[n+]([C@@H]2O[C@H](COP(=O)(O)OP(=O)(O)OC[C@H]3O[C@@H](n4cnc5c(N)ncnc54)[C@H](O)[C@@H]3O)[C@@H](O)[C@H]2O)c1` [NAD^+], the Km ([…] PC6 (saturating), […] PEG […] Tris pH […] NaCl) worked out at 630 µM.
